Measurements as given in patent publication US20210179578A1, “OX1 ANTAGONISTS” (Heptares Therapeutics Limited, priority 2017, published 2021).
Where two headings read alike, the source gives them in different places.

Key:
human OX1 receptor = target: T1, human OX1 receptor (Homo sapiens, UniProt O43613); assay: IPone accumulation assay, CHO cells expressing OX1 (antagonism of orexin A); format: cell-based; details: CHO human OX1, orexin A EC80 challenge (~20 nM)
T1 sequence (O43613 1-425): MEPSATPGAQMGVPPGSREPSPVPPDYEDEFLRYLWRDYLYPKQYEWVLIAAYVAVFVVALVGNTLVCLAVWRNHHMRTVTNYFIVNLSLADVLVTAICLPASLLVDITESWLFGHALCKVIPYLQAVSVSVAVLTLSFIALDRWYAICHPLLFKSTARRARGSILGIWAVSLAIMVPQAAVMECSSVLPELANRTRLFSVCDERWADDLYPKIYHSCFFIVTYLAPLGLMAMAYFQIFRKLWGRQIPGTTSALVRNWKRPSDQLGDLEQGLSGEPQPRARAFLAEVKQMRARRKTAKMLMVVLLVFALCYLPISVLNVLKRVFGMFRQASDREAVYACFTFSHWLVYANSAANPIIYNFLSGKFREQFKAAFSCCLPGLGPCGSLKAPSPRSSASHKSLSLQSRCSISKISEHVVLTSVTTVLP
Procedure: Generation of CHO stable cell lines expressing the human OX1R and OX2R. Stable cell lines for the human OX1R and OX2R receptors were generated through the transfection of CHO cells using the transfection reagent Genejuice (Novagen number 70967) and cDNA coding for either the human OX1R or OX2R. Cells were cultured in Sigma Nutrient Mixture F-12 Ham media (catalog number N6658) supplemented with 10% heat-inactivated FBS. Forty-eight hours after transfection, cells were harvested and placed under geneticin selection by culturing in Sigma Nutrient Mixture F-12 Ham media supplemented with 10% heat-inactivated FBS and geneticin (ThermoFisher Catalog number: 10131035). Selection of the final stable clone for each receptor was made on the basis of receptor expression, assay signal to noise and robustness though increasing passage. Selected clones for the human OX1R and OX2R were then frozen down into liquid nitrogen using Cell Freezing Medium-DMSO (Sigma-Aldrich catalog number: C6164). IPone accumulation assay. A CHO cell line stably expressing either human OX1 or OX2 receptor was used with the IPone HTRF assay kit (CisBio: Part #62[…]) to measure receptor activation. The assay was optimised to measure the ability (potency; fpKb) of antagonists to reduce agonist (orexin A)-induced inositol phosphate turnover. Briefly, cells were plated onto half area 96-well white walled plates at a density of 12,500 cells/well. Sixteen hours post-plating cell growth media was replaced with antagonist concentration-response curve diluted in stimulation buffer (supplied with the kit). Cells were incubated in a humidified incubator (37° C.) for 30 min before an EC80 challenge concentration ( 20 nM (OX1) and 40 nM (OX2)) of orexin A (Tocris catalogue number 1455). After 30 min stimulation in a humidified incubator (37° C.) the assay was terminated by the addition of detection mixture as per manufacturer's instructions. The concentration of compound which reduced orexin-A stimulated turnover of inositol phosphates by 50% (IC50) was calculated by fitting to a four parameter sigmoidal dose response curve. The IC50 values were converted to fpKB values using the orexin A pEC50 value estimated on each plate as well as the challenge concentration interpolated from the orexin A control curve.

human OX2 receptor = target: T2, human OX2 receptor (Homo sapiens, UniProt O43614); assay: IPone accumulation assay, CHO cells expressing OX2 (antagonism of orexin A); format: cell-based; details: CHO human OX2, orexin A EC80 challenge (40 nM), read-out: fpKb average OX2 (converted)
T2 sequence (O43614 1-444): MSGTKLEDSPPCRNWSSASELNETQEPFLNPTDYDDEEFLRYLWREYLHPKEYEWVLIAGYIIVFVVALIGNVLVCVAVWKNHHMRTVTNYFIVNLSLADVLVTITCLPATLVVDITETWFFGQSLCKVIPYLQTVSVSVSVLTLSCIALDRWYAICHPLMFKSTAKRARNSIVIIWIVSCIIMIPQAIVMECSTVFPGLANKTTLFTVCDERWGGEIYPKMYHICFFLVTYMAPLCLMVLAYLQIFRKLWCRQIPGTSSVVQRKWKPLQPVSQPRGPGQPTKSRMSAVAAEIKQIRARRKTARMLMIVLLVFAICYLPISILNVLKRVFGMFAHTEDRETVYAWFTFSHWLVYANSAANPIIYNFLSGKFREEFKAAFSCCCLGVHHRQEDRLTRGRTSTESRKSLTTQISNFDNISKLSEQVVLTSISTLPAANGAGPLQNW
Procedure: Generation of CHO stable cell lines expressing the human OX1R and OX2R. Stable cell lines for the human OX1R and OX2R receptors were generated through the transfection of CHO cells using the transfection reagent Genejuice (Novagen number 70967) and cDNA coding for either the human OX1R or OX2R. Cells were cultured in Sigma Nutrient Mixture F-12 Ham media (catalog number N6658) supplemented with 10% heat-inactivated FBS. Forty-eight hours after transfection, cells were harvested and placed under geneticin selection by culturing in Sigma Nutrient Mixture F-12 Ham media supplemented with 10% heat-inactivated FBS and geneticin (ThermoFisher Catalog number: 10131035). Selection of the final stable clone for each receptor was made on the basis of receptor expression, assay signal to noise and robustness though increasing passage. Selected clones for the human OX1R and OX2R were then frozen down into liquid nitrogen using Cell Freezing Medium-DMSO (Sigma-Aldrich catalog number: C6164).
IPone accumulation assay. A CHO cell line stably expressing either human OX1 or OX2 receptor was used with the IPone HTRF assay kit (CisBio: Part #62IPAPEJ) to measure receptor activation. The assay was optimised to measure the ability (potency; fpKb) of antagonists to reduce agonist (orexin A)-induced inositol phosphate turnover. Briefly, cells were plated onto half area 96-well white walled plates at a density of 12,500 cells/well. Sixteen hours post-plating cell growth media was replaced with antagonist concentration-response curve diluted in stimulation buffer (supplied with the kit). Cells were incubated in a humidified incubator (37° C.) for 30 min before an EC80 challenge concentration (˜20 nM (OX1) and 40 nM (OX2)) of orexin A (Tocris catalogue number 1455). After 30 min stimulation in a humidified incubator (37° C.) the assay was terminated by the addition of detection mixture as per manufacturer's instructions. The concentration of compound which reduced orexin-A stimulated turnover of inositol phosphates by 50% (IC50) was calculated by fitting to a four parameter sigmoidal dose response curve. The IC50 values were converted to fpKB values using the orexin A pEC50 value estimated on each plate as well as the challenge concentration interpolated from the orexin A control curve.

[1] = IPone accumulation, read-out: fpKb average OX1 (converted)

SMILES	Kb (human OX1 receptor; fpKb average OX1, IPone accumulation) [nM]	Kb (human OX2 receptor) [nM]	Kb (human OX1 receptor; [1]) [nM]
CSc1cc(N2CCc3c(F)cccc3N(Cc3c(F)cc(Br)cc3F)C2=O)ccc1C [Example 26, 1-(4-bromo-2,6-difluorobenzyl)-6-fluoro-3-[4-methyl-3-(methylsulfanyl)phenyl]-1,3,4,5-tetrahydro-2H-1,3-benzodiazepin-2-one]	50.1	> 794	
COCc1cc(F)c(CN2C(=O)N(c3cc(C(C)(F)F)c(OC)nc3OC)CCc3c(F)cccc32)c(F)c1 [Example 24, 3-[5-(1,1-difluoroethyl)-2,6-dimethoxypyridin-3-yl]-1-[2,6-difluoro-4-(methoxymethyl)benzyl]-6-fluoro-1,3,4,5-tetrahydro-2H-1,3-benzodiazepin-2-one]		> 3160	63.1
Cc1ncc(N2CCc3c(F)cccc3N(Cc3c(F)cc(Br)cc3F)C2=O)cc1C(C)(F)F [Example 32, 1-(4-bromo-2,6-difluorobenzyl)-3-[5-(1,1-difluoroethyl)-6-methylpyridin-3-yl]-6-fluoro-1,3,4,5-tetrahydro-2H-1,3-benzodiazepin-2-one]		> 631	63.1
COc1ncc(C2CCc3c(F)cccc3N(Cc3c(F)cc(Br)cc3F)C2=O)cc1S(C)(=O)=O (single isomer, unassigned) [Example 21, 1-(4-bromo-2,6-difluorobenzyl)-6-fluoro-3-[6-methoxy-5-(methylsulfonyl)pyridin-3-yl]-1,3,4,5-tetrahydro-2H-1-benzazepin-2-one]		> 1580	10
COc1ncc(N2CCc3c(F)cccc3N(Cc3c(F)cc(Br)cc3F)C2=O)cc1C(C)(F)F [Example 3, 1-(4-bromo-2,6-difluorobenzyl)-3-[5-(1,1-difluoroethyl)-6-methoxypyridin-3-yl]-6-fluoro-1,3,4,5-tetrahydro-2H-1,3-benzodiazepin-2-one]		> 794	50.1
Cc1cc(C)c(S(C)(=O)=O)cc1N1CCc2c(F)cccc2N(Cc2c(F)cc(Br)cc2F)C1=O [Example 31, 1-(4-bromo-2,6-difluorobenzyl)-3-[2,4-dimethyl-5-(methylsulfonyl)phenyl]-6-fluoro-1,3,4,5-tetrahydro-2H-1,3-benzodiazepin-2-one]		> 316	20
COc1nc(OC)c(C(C)(F)F)cc1N1CCc2c(F)cccc2N(Cc2c(F)cc(Br)cc2F)C1=O [Example 23, 1-(4-bromo-2,6-difluorobenzyl)-3-[5-(1,1-difluoroethyl)-2,6-dimethoxypyridin-3-yl]-6-fluoro-1,3,4,5-tetrahydro-2H-1,3-benzodiazepin-2-one]		> 1580	50.1
COc1ccc(CN2C(=O)N(c3cnc(OC)c(C(C)(F)F)c3)CCc3c(F)cccc32)c(F)c1 [Example 4, 3-[5-(1,1-difluoroethyl)-6-methoxypyridin-3-yl]-6-fluoro-1-(2-fluoro-4-methoxybenzyl)-1,3,4,5-tetrahydro-2H-1,3-benzodiazepin-2-one]		> 3980	15.8
Cc1ccc(N2CCc3c(F)cccc3N(Cc3c(F)cc(Br)cc3F)C2=O)cc1S(C)(=O)=O [Example 27, 1-(4-bromo-2,6-difluorobenzyl)-6-fluoro-3-[4-methyl-3-(methylsulfonyl)phenyl]-1,3,4,5-tetrahydro-2H-1,3-benzodiazepin-2-one]		> 3160	126
Cc1cc(C)c(S(C)(=O)=O)cc1N1CCc2ccccc2N(Cc2c(F)cc(Br)cc2F)C1=O [Example 29, 1-(4-bromo-2,6-difluorobenzyl)-3-[2,4-dimethyl-5-(methylsulfonyl)phenyl]-1,3,4,5-tetrahydro-2H-1,3-benzodiazepin-2-one]		398	39.8
COc1ncc(N2CCc3c(F)cccc3N(Cc3c(F)cc(Br)cc3F)C2=O)cc1S(C)(=O)=O [Example 14, 1-(4-bromo-2,6-difluorobenzyl)-6-fluoro-3-[6-methoxy-5-(methylsulfonyl)pyridin-3-yl]-1,3,4,5-tetrahydro-2H-1,3-benzodiazepin-2-one]		> 794	79.4
Cc1ncc(C2CCc3c(F)cccc3N(Cc3c(F)cc(Br)cc3F)C2=O)cc1S(C)(=O)=O (single isomer, unassigned) [Example 38, 1-(4-bromo-2,6-difluorobenzyl)-6-fluoro-3-[6-methyl-5-(methylsulfonyl)pyridin-3-yl]-1,3,4,5-tetrahydro-2H-1-benzazepin-2-one]		> 398	20
Cc1ncc(C2CCc3c(F)cccc3N(Cc3c(F)cc(Br)cc3F)C2=O)cc1S(C)(=O)=O (single isomer, unassigned) [Example 39, 1-(4-bromo-2,6-difluorobenzyl)-6-fluoro-3-[6-methyl-5-(methylsulfonyl)pyridin-3-yl]-1,3,4,5-tetrahydro-2H-1-benzazepin-2-one]		> 2510	31.6
[2H]C([2H])([2H])OCc1cc(F)c(CN2C(=O)N(c3cnc(OC)c(C(C)(F)F)c3)CCc3c(F)cccc32)c(F)c1 [Example 5, 3-[5-(1,1-difluoroethyl)-6-methoxypyridin-3-yl]-1-(2,6-difluoro-4-{[(^2H3)methyloxy]methyl}benzyl)-6-fluoro-1,3,4,5-tetrahydro-2H-1,3-benzodiazepin-2-one]		> 2000	1.58
COc1ncc(C2CCc3c(F)cccc3N(Cc3cc(C#N)ccc3F)C2=O)cc1C(C)(F)F (single isomer, unassigned) [Example 13, 3-({3-[5-(1,1-difluoroethyl)-6-methoxypyridin-3-yl]-6-fluoro-2-oxo-2,3,4,5-tetrahydro-1H-1-benzazepin-1-yl}methyl)-4-fluorobenzonitrile]		> 794	50.1
